What was measured:
[1] = target: T1, human adenosine A2A receptor (Homo sapiens, UniProt P29274); experiment: Adenosine A2A Receptor Functional Assay (A2AGAL2); type: cell-based; details: for IC50: CHO-K1 cells overexpressing human A2A receptor, cAMP inducible beta-galactosidase reporter, antagonist mode vs 15 nM NECA challenge; for A1/A2A: selectivity ratio of A1Gal2 value to A2AGal2 value
T1 construct: expressed in transfected cells; host or cells: CHO-K1 cells with cAMP inducible beta-galactosidase reporter gene
T1 sequence (P29274 whole entry): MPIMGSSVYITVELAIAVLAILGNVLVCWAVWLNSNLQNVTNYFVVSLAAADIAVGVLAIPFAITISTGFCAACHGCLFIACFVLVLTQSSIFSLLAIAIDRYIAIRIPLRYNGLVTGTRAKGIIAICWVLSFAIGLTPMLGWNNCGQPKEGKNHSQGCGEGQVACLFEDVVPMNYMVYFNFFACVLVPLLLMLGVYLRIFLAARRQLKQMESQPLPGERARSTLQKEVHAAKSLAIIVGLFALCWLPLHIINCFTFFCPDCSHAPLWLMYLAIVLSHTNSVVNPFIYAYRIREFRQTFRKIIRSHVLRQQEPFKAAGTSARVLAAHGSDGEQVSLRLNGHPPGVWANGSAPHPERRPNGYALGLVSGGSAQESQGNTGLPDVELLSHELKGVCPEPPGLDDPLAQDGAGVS
Experimental: Adenosine A2A Receptor Functional Assay (A2AGAL2)
To initiate the functional assay, cryopreserved CHO—K1 cells overexpressing the human adenosine A2A receptor and containing a cAMP inducible beta-galactosidase reporter gene were thawed, centrifuged, DMSO containing media removed, and then seeded with fresh culture media into clear 384-well tissue culture treated plates (BD #353961) at a concentration of 10K cells/well. Prior to assay, these plates were cultured for two days at 37° C., 5% CO2, 90% Rh. On the day of the functional assay, culture media was removed and replaced with 45 μL assay medium (Hams/F-12 Modified (Mediatech #10-080CV) supplemented w/0.1% BSA). Test compounds were diluted and 11 point curves created at a 1000× concentration in 100% DMSO. Immediately after addition of assay media to the cell plates, 50 nL of the appropriate test compound antagonist or agonist control curves were added to cell plates using a Cartesian Hummingbird. Compound curves were allowed to incubate at room temperature on cell plates for approximately 15 minutes before addition of a 15 nM NECA (Sigma E2387) agonist challenge (5 μL volume). A control curve of NECA, a DMSO/Media control, and a single dose of Forskolin (Sigma F3917) were also included on each plate. After additions, cell plates were allowed to incubate at 37° C., 5% CO2, 90% Rh for 5.5-6 hours. After incubation, media were removed, and cell plates were washed 1×50 μL with DPBS w/o Ca & Mg (Mediatech 21-031-CV). Into dry wells, 20 μL of 1× Reporter Lysis Buffer (Promega E3971 (diluted in dH2O from 5× stock)) was added to each well and plates frozen at −20° C. overnight. For β-galactosidase enzyme colorimetric assay, plates were thawed out at room temperature and 20 μL 2× assay buffer (Promega) was added to each well. Color was allowed to develop at 37° C., 5% CO2, 90% Rh for 1-1.5 h or until reasonable signal appeared. The colorimetric reaction was stopped with the addition of 60 μL/well 1M sodium carbonate. Plates were counted at 405 nm on a SpectraMax Microplate Reader (Molecular Devices). Data was analyzed in Microsoft Excel and IC/EC50 curves were fit using a standardized macro.

[2] = target: T2, human adenosine A1 receptor (Homo sapiens, UniProt P30542); experiment: Adenosine A1 Receptor Functional Assay (A1GAL2); type: cell-based; details: CHO-K1 cells overexpressing human A1 receptor, cAMP inducible beta-galactosidase reporter; antagonist mode vs 4 nM r-PIA/1 uM Forskolin challenge
T2 construct: expressed in transfected cells; host or cells: CHO-K1 cells with cAMP inducible beta-galactosidase reporter gene
T2 sequence (P30542 1-326): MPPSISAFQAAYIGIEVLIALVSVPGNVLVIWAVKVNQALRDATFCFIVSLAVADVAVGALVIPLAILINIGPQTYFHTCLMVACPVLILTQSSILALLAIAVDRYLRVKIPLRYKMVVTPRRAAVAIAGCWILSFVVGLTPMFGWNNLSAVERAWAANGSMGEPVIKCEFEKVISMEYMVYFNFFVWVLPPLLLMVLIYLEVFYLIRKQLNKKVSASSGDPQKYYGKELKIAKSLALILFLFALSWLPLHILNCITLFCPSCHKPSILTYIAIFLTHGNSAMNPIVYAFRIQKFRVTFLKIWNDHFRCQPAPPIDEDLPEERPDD
Experimental: Adenosine A1 Receptor Functional Assay (A1GAL2)
To initiate the functional assay, cryopreserved CHO—K1 cells overexpressing the human adenosine A1 receptor and containing a cAMP inducible beta-galactosidase reporter gene were thawed, centrifuged, DMSO containing media removed, and then seeded with fresh culture media into clear 384-well tissue culture treated plates (BD #353961) at a concentration of 10K cells/well. Prior to assay, these plates were cultured for two days at 37° C., 5% CO2, 90% Rh. On the day of the functional assay, culture media was removed and replaced with 45 μL assay medium (Hams/F-12 Modified (Mediatech # 10-080CV) supplemented w/0.1% BSA). Test compounds were diluted and 11 point curves created at a 1000× concentration in 100% DMSO. Immediately after addition of assay media to the cell plates, […] of the appropriate test compound antagonist or agonist control curves were added to cell plates using a Cartesian Hummingbird. Compound curves were allowed to incubate at room temperature on cell plates for approximately 15 minutes before addition of a 4 nM r-PIA (Sigma P4532)/1 uM Forskolin (Sigma F3917) agonist challenge (5 μL volume). A control curve of r-PIA in 1 uM Forskolin, a DMSO/Media control, and a single dose of Forskolin were also included on each plate. After additions, cell plates were allowed to incubate at 37° C., 5% CO2, 90% Rh for 5.5-6 hours. After incubation, media was removed, and cell plates were washed 1×50 μL with DPBS w/o Ca & Mg (Mediatech 21-031-CV). Into dry wells, 20 μL of 1× Reporter Lysis Buffer (Promega E3971 (diluted in dH2O from 5× stock)) was added to each well and plates frozen at −20° C. overnight. For β-galactosidase enzyme colorimetric assay, plates were thawed out at room temperature and 20 μL 2× assay buffer (Promega) was added to each well. Color was allowed to develop at 37° C., 5% CO2, 90% Rh for 1-1.5 h or until reasonable signal appeared. The colorimetric reaction was stopped with the addition of 60 μL/well 1M sodium carbonate. Plates were counted at 405 nm on a SpectraMax Microplate Reader (Molecular Devices). Data was analyzed in Microsoft Excel and IC/EC50 curves were fit using a standardized macro.

Structure (SMILES) | IC50 [1] [µM] | A1/A2A [1] | IC50 [2] [µM]
Cc1cc(-c2cccc3c2-c2nc(N)nc(-c4ccccc4)c2C3=O)cnc1N1CCN(C)CC1 [Example 10, 2-Amino-9-[5-methyl-6-(4-methyl-piperazin-1-yl)-pyridin-3-yl]-4-phenyl-indeno [1,2-d]pyrimidin-5-one] | 0.003 | 63.3333 | 0.19
Nc1nc(-c2ccccc2)c2c(n1)-c1c(cccc1-c1ccc(N3CCN(Cc4ccccc4)CC3)nc1)C2=O [Example 8, 2-Amino-9-[6-(4-benzyl-piperazin-1-yl)-pyridin-3-yl]-4-phenyl-indeno [1,2-d]pyrimidin-5-one] | 0.0056 | 100 | 0.56
Cc1nc(-c2ccc(C(F)(F)F)cc2)sc1-c1cccc2c1-c1nc(N)nc(-c3ccc(F)cc3)c1C2=O [Example 3, 2-Amino-4-(4-fluoro-phenyl)-9-[4-methyl-2-(4-trifluoromethyl-phenyl)-thiazol-5-yl]-indeno[1,2-d]pyrimidin-5-one] | 0.05 | 108 | 5.4
Cc1c(-c2cccc3c2-c2nc(N)nc(-c4ccccc4)c2C3=O)cnn1-c1ccccc1 [Example 7, 2-Amino-9-(5-methyl-1-phenyl-1H-pyrazol-4-yl)-4-phenyl-indeno [1,2-d]pyrimidin-5-one] | 0.017 | 51.1765 | 0.87
Cc1nc(-c2ccccc2)sc1-c1cccc2c1-c1nc(N)nc(-c3ccc(F)cc3)c1C2=O [Example 5, 2-Amino-4-(4-fluoro-phenyl)-9-(4-methyl-2-phenyl-thiazol-5-yl)-indeno[1,2-d]pyrimidin-5-one] | 0.017 |  | 0.92
CCOC(=O)Cn1cc(-c2cccc3c2-c2nc(N)nc(-c4ccc(F)cc4)c2C3=O)cn1 [Example 6, {4-[2-Amino-4-(4-fluoro-phenyl)-5-oxo-5H-indeno[1,2-d]pyrimidin-9-yl]-pyrazol-1-yl}-acetic acid ethyl ester] | 0.0042 | 53.6847 | 0.225
CC(C)CCN1CCN(c2ccc(-c3cccc4c3-c3nc(N)nc(-c5ccc(F)cc5)c3C4=O)cn2)CC1 [Example 11, 2-Amino-4-(4-fluoro-phenyl)-9-{6-[4-(3-methyl-butyl)-piperazin-1-yl]-pyridin-3-yl}-indeno[1,2-d]pyrimidin-5-one] | 0.018 | 55.5556 | 1
Nc1nc(-c2ccc(F)cc2)c2c(n1)-c1c(cccc1-c1ccc(N3CCN(CC4CC4)CC3)nc1)C2=O [Example 9, 2-Amino-9-[6-(4-cyclopropylmethyl-piperazin-1-yl)-pyridin-3-yl]-4-(4-fluoro-phenyl)-indeno[1,2-d]pyrimidin-5-one] | 0.0079 | 73.4177 | 0.58
Cc1nc(-c2ccccc2)sc1-c1cccc2c1-c1nc(N)nc(-c3ccccc3)c1C2=O [Example 1, 2-Amino-9-(4-methyl-2-phenyl-thiazol-5-yl)-4-phenyl-indeno[1,2-d]pyrimidin-5-one] | 0.0071 | 1056.34 | 7.5
N#Cc1ccc(-c2cccc3c2-c2nc(N)nc(-c4ccccc4)c2C3=O)s1 [Example 4, 5-(2-Amino-5-oxo-4-phenyl-5H-indeno[1,2-d]pyrimidin-9-yl)-thiophene-2-carbonitrile] | 0.0013 | 92.3077 | 0.12
Nc1nc(-c2ccc(F)cc2)c2c(n1)-c1c(cccc1-c1cnn(CCN3CCOCC3)c1)C2=O [Example 2, 2-Amino-4-(4-fluoro-phenyl)-9-[1-(2-morpholin-4-yl-ethyl)-1H-pyrazol-4-yl]-indeno[1,2-d]pyrimidin-5-one] | 0.0127 | 160.288 | 2.03

Reference: US20110105494A1, “HETEROARYL SUBSTITUTED ARYLINDENOPYRIMIDINES AND THEIR USE AS HIGHLY SELECTIVE ADENOSINE A2A RECEPTOR ANTAGONISTS” (priority 2009, published 2011)
